Holding throughout (test): Transient transfection (transactivation) assay in CV-1 cells, GAL4-PPAR LBD chimera, SPAP reporter
What all share (format): cell-based

In one test the target is T1, hPPAR delta (Homo sapiens, UniProt Q03181).
T1 construct: expressed in transfected cells; host or cells: CV-1 cells
T1 sequence (Q03181 211-439 limits assumed): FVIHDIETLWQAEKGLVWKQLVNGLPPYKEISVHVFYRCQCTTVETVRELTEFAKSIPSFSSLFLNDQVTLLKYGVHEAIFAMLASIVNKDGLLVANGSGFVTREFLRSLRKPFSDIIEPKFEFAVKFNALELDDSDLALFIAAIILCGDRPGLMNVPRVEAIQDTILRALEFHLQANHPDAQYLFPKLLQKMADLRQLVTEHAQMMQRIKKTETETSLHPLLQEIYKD
To be noted: read-out: EC50 μM HPPARδ. From the text: (§1) Compounds were screened for functional potency in transient transfection assays in CV-1 cells for their ability to activate the PPAR subtypes (transactivation assay). A previously established chimeric receptor system was utilized to allow comparison of the relative transcriptional activity of the receptor subtypes on the same target gene and to prevent endogenous receptor activation from complicating the interpretation of results. See, for example, Lehmann, J. M.; Moore, L. B.; Smith-Oliver, T. A.; Wilkison, W. O.; Willson, T. M.; Kliewer, S. A., An antidiabetic thiazolidinedione is a high affinity ligand for peroxisome proliferator-activated receptor gamma (PPARgamma), J. Biol. Chem., 270, 12953-6 (1995). The ligand binding domains for murine and human PPAR alpha, PPAR gamma, and PPAR delta were each fused to the yeast transcription factor GAL4 DNA binding domain. CV-1 cells were transiently transfected with expression vectors for the respective PPAR chimera along with a reporter construct containing five copies of the GAL4 DNA binding site driving expression of secreted placental alkaline phosphatase (SPAP) and beta-galactosidase. After 16 h, the medium was exchanged to DME medium supplemented with 10% delipidated fetal calf serum and the test compound at the appropriate concentration. After an additional 24 h, cell extracts were prepared and assayed for alkaline phosphatase and β-galactosidase activity. Alkaline phosphatase activity was corrected for transfection efficiency using the beta-galactosidase activity as an internal standard (see, for example, Kliewer, S. A., et. al. Cell 83, 813-819 (1995)). Rosiglitazone (BRL 49653) was used as a positive control in the hPPAR gamma assay. The positive control in the hPPAR alpha assays was 2-4-[2-(3-[4-fluorophenyl]-1-heptylureido)ethyl]-phenoxy-(2-methyl propionic acid (WO 97/36579). The positive control for PPAR delta assays was 2-{2-methyl-4-[({4-methyl-2-{trifluoromethyl)phenyl]-1,3-thiazol-5-yl}methyl)sulfanyl]phenoxy}acetic acid (WO 01/00603). The positive control was (5-{4-[2-(Methyl-pyridin-2-yl-amino)-ethoxy]-benzyl}-thiazolidine-2,4-dione (J. Med. Chem. 1994, 37(23), 3977), for PPAR gamma.
(§2) Activities in three hPPAR subtypes are reported in the table and are expressed in micromolar.

A further test addresses T2, hPPAR alpha (Homo sapiens, UniProt Q07869).
T2 construct: expressed in transfected cells; host or cells: CV-1 cells
T2 sequence (Q07869 239-466 limits assumed): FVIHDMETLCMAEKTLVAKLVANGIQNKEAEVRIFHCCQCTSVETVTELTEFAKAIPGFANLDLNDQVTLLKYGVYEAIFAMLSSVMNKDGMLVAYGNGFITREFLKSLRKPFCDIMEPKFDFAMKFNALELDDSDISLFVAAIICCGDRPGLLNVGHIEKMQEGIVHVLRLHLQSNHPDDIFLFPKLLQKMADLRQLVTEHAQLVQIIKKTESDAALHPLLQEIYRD
To be noted: read-out: EC50 μM HPPARα.
Excerpt: as §1, §2

For a further test, the target named is T3, hPPAR gamma (Homo sapiens, UniProt P37231).
T3 construct: expressed in transfected cells; host or cells: CV-1 cells
T3 sequence (P37231 238-503 limits assumed): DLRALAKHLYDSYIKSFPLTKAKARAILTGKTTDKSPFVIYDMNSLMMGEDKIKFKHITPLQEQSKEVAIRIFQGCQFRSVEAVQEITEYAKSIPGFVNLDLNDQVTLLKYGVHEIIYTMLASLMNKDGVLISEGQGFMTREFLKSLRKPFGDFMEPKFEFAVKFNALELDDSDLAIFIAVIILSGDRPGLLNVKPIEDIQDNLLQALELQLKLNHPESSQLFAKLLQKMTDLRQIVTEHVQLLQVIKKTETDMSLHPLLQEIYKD
The conditions noted are these: read-out: EC50 μM HPPARγ. From the text:
Compounds were screened for functional potency in transient transfection assays in CV-1 cells for their ability to activate the PPAR subtypes (transactivation assay). A previously established chimeric receptor system was utilized to allow comparison of the relative transcriptional activity of the receptor subtypes on the same target gene and to prevent endogenous receptor activation from complicating the interpretation of results. […] The ligand binding domains for murine and human PPAR alpha, PPAR gamma, and PPAR delta were each fused to the yeast transcription factor GAL4 DNA binding domain. CV-1 cells were transiently transfected with expression vectors for the respective PPAR chimera along with a reporter construct containing five copies of the GAL4 DNA binding site driving expression of secreted placental alkaline phosphatase (SPAP) and beta-galactosidase. After 16 h, the medium was exchanged to DME medium supplemented with 10% delipidated fetal calf serum and the test compound at the appropriate concentration. After an additional 24 h, cell extracts were prepared and assayed for alkaline phosphatase and β-galactosidase activity.

Take `Cc1cc(CNC(=O)c2cc(-c3ccc(C(C)(C)C)cc3)n(C)n2)ccc1OC(C)(C)C(=O)O` [Example 1, 2-[(4-{[({5-[4-(1,1-dimethylethyl)phenyl]-1-methyl-1H-pyrazol-3-yl)carbonyl)amino]methyl}-2-methylphenyl)oxy]-2-methylpropanoic acid]: the results for the EC50 at hPPAR delta and at hPPAR alpha were 5.45 µM and 0.014 µM, respectively.

`Cc1cc(CNC(=O)c2cc(-c3ccc(C(C)C)cc3)nn2C)ccc1OC(C)(C)C(=O)O` [Example 2]: the EC50 (in general, the concentration at which the effect is half-maximal) was found to be 0.82 µM at hPPAR delta, 0.018 µM at hPPAR alpha and 0.044 µM on hPPAR gamma.

With `C=CCc1cc(CNC(=O)c2cc(-c3ccc(C(C)(C)C)cc3)nn2C)ccc1OC(C)(C)C(=O)O` [Example 3], the EC50 at hPPAR delta was more than 10 µM; at hPPAR alpha, 0.1 µM; at hPPAR gamma it was 0.212 µM.

For the compound `CCCc1cc(CNC(=O)c2cc(-c3ccc(C(C)(C)C)cc3)nn2C)ccc1OC(C)(C)C(=O)O` [Example 4, 2-[(4-{[{(3-[4-(1,1-dimethylethyl)phenyl]-1-methyl-1H-pyrazol-5-yl}carbonyl)amino]methyl}-2-propylphenyl)oxy]-2-methylpropanoic acid], the EC50 was 1.09 µM on hPPAR delta, 0.066 µM on hPPAR alpha and 0.072 µM at hPPAR gamma.

`CCn1nc(-c2ccc(C(C)(C)C)cc2)cc1C(=O)NCc1ccc(OC(C)(C)C(=O)O)c(OC)c1` [Example 5]: the concentration for a half-maximal effect (EC50) is more than 10 µM at hPPAR delta, 0.301 µM on hPPAR alpha and 0.444 µM on hPPAR gamma.

For `Cc1cc(CNC(=O)c2cc(-c3ccc(CC(C)C)cc3)n(C)n2)ccc1OC(C)(C)C(=O)O` [Example 7, 2-methyl-2-[(2-methyl-4-{[({1-methyl-5-[4-(2-methylpropyl)phenyl]-1H-pyrazol-3-yl}carbonyl)amino]methyl}phenyl)oxy]propanoic acid], the results for the EC50 at hPPAR delta, on hPPAR alpha and on hPPAR gamma were 2.06 µM, 0.002 µM and 0.008 µM, respectively.

Regarding `Cc1cc(CNC(=O)c2cc(-c3ccc(CC(C)C)cc3)nn2C)ccc1OC(C)(C)C(=O)O` [Example 8, 2-methyl-2-[(2-methyl-4-{[({1-methyl-3-[4-(2-methylpropyl)phenyl]-1H-pyrazol-5-yl}carbonyl)amino]methyl}phenyl)oxy]propanoic acid], the 50% effective concentration (EC50) was found to be 1.07 µM at hPPAR delta, 0.051 µM at hPPAR alpha and 0.059 µM on hPPAR gamma.

As to `COc1cc(CNC(=O)c2cc(-c3ccc(C(C)C)cc3)nn2C)ccc1OC(C)(C)C(=O)O` [Example 10], the EC50 on hPPAR delta was more than 10 µM; on hPPAR alpha it was 2.9 µM; on hPPAR gamma, 0.554 µM.

In the case of `Cc1cc(CNC(=O)c2cc(-c3ccc(C(C)(C)C)cc3)nn2C)ccc1OC(C)(C)C(=O)O` [Example 11, 2-[(4-{[({3-[4-(1,1-dimethylethyl)phenyl]-1-methyl-1H-pyrazol-5-yl}carbonyl)amino]methyl}-2-methylphenyl)oxy]-2-methylpropanoic acid], the EC50 at hPPAR delta was determined as 2.17 µM; on hPPAR alpha, 0.05 µM.

As for `COc1cc(CNC(=O)c2cc(-c3ccc(C(C)(C)C)cc3)nn2C)ccc1OC(C)(C)C(=O)O` [Example 12, 2-{[4-{[({3-[4-(1,1-dimethylethyl)phenyl]-1-methyl-1H-prazol-5-yl}carbonyl)amino]methyl}-2-(methyloxy)phenyl]oxy}-2-methyl propanoic acid], the EC50 at hPPAR delta was more than 10 µM; at hPPAR alpha it was 1.05 µM; at hPPAR gamma, 0.432 µM.

Regarding `CCn1nc(C(=O)NCc2ccc(OC(C)(C)C(=O)O)c(C)c2)cc1-c1ccc(C(C)(C)C)cc1` [Example 13, 2-[(4-{[({5-[4-(1,1-dimethylethyl)phenyl]-1-ethyl-1H-pyrazol-3-yl}carbonyl)amino]methyl}-2-methylphenyl)oxy]-2-methylpropanoic acid], the EC50 is more than 10 µM on hPPAR delta, 0.009 µM on hPPAR alpha and 0.011 µM on hPPAR gamma.

On to `COc1cc(CNC(=O)c2cc(-c3ccc(CC(C)C)cc3)n(C)n2)ccc1OC(C)(C)C(=O)O` [Example 14], for which the EC50 was more than 10 µM at hPPAR delta, 0.177 µM at hPPAR alpha and 0.13 µM at hPPAR gamma.

With `CCn1nc(-c2ccc(C(C)(C)C)cc2)cc1C(=O)NCc1ccc(OC(C)(C)C(=O)O)c(C)c1` [Example 15, 2-[(4-{[({3-[4-(1,1-dimethylethyl)phenyl]-1-ethyl-1H-pyrazol-5-yl}carbonyl)amino]methyl}-2-methylphenyl)oxy]-2-methyl propanoic acid], the EC50 on hPPAR delta is 2.44 µM; at hPPAR alpha it was 0.075 µM; on hPPAR gamma, 0.024 µM.

As for `Cn1nc(-c2ccc(C(C)(C)C)cc2)cc1C(=O)NCc1ccc(OC(C)(C)C(=O)O)cc1` [Example 16, 12-[(4-{[({3-[4-[1,1-dimethylethyl)phenyl]-1-methyl-1H-pyrazol-5-yl}carbonyl)amino]methyl}phenyl)oxy]-2-methylpropanoic acid], the EC50 on hPPAR alpha came to 0.163 µM; at hPPAR gamma, 1.09 µM.

For `Cn1nc(C(=O)NCc2ccc(OC(C)(C)C(=O)O)cc2)cc1-c1ccc(C(C)(C)C)cc1` [Example 17], the EC50 on hPPAR alpha stood at 0.07 µM; on hPPAR gamma, 0.376 µM.

Take `Cc1cc(CNC(=O)c2cc(-c3ccc(C(C)C)cc3)n(C)n2)ccc1OC(C)(C)C(=O)O` [Example 18]: the EC50 was found to be 4.02 µM at hPPAR delta, 0.004 µM at hPPAR alpha and 0.009 µM at hPPAR gamma.

With `Cc1cc(CNC(=O)c2cc(-c3ccc(N4CCCC4)cc3)n(C)n2)ccc1OC(C)(C)C(=O)O` [Example 20, 2-methyl-2-[(2-methyl-4-{[({1-methyl-5-[4-(1-pyrrolidinyl)phenyl]-1H-pyrazol-3-yl}carbonyl)amino]methyl}phenyl)oxy]propanoic acid], the EC50 on hPPAR delta was 1.06 µM; at hPPAR alpha, 0.076 µM; at hPPAR gamma it was 0.02 µM.

On to `Cc1cc(CNC(=O)c2cc(-c3ccc(N4CCCCC4)cc3)n(C)n2)ccc1OC(C)(C)C(=O)O` [Example 21], for which the EC50 on hPPAR delta came to 1.12 µM; on hPPAR alpha it was 0.01 µM; on hPPAR gamma, 0.005 µM.

On to `Cc1cc(CNC(=O)c2cc(-c3ccc(-c4ccccc4)cc3)n(C)n2)ccc1OC(C)(C)C(=O)O` [Example 22, 2-({4-[({[5-(4-biphenylyl)-1-methyl-1H-pyrazol-3-yl]carbonyl}amino)methyl]-2-methylphenyl}oxy)-2-methylpropanoic acid], for which the EC50 at hPPAR delta was 1.55 µM; at hPPAR alpha it was 0.02 µM.

In the case of `C=CCOc1ccc(-c2cc(C(=O)NCc3ccc(OC(C)(C)C(=O)O)c(C)c3)nn2C)cc1` [Example 59, 2-methyl-2-[(2-methyl-4-{[({1-methyl-5-[4-(2-propen-1-yloxy)phenyl]-1H-pyrazol-3-yl}carbonyl)amino]methyl}phenyl)oxy]propanoic acid], the EC50 is 0.094 µM on hPPAR alpha and 0.028 µM on hPPAR gamma.

Values taken from patent US20080021030A1, “Substituted Pyrazoles As Ppar Agonists” (priority 2003, published 2008).
